According to patent publication US11026972B2, “Methods for generating macrophages with enhanced cancer phagocytosis” (Georgia State University Research Foundation, Inc., priority 2016, dated 2021):

Columns and labels:
Format in all cases: cell-based, mouse
PEMs [1] = experiment: Cell signaling inhibitors on LPS/cytokine- or PMA-induced PEM phagocytic activation toward RBCs; conditions: PMA treatment
Description: FIGS. 5A-5H include data related to our experiments on the role of Syk in phagocytic activation. […] PEMs were treated with LPS and cytokines in the presence of various inhibitors. After washing, inhibitor-free macrophages were tested for phagocytosis toward RBCs. […] PEMs treated with LPS and activating cytokines, or together with IL-10, were tested for total Syk and phosphorylated Syk (Syk^pY, specific at Y519/520). FIG. 5D describes PMA-induced macrophages phagocytosis toward RBCs. WT and SIRPα^−/− PEMs were treated with PMA (37° C., 30 min) before testing phagocytosis toward RBCs. FIG. 5E is a schematic depiction of PKC-Syk-mediated macrophage phagocytic activation toward self. […] Left: Inhibition of Syk by piceatannol and R406 prevented PMA-induced phagocytic activation. […] Error bars are ±SEM. ***P<0.001 vs. the respective controls. […] LPS-treated WT PEMs were further briefly treated with pervanadate before testing for phagocytosis toward RBCs. Error bars are ±SEM. ***P<0.001 vs. the respective controls. […] Data presented in each panel represent at least three independent experiments with n≥4, if applicable.
(§1) Ex vivo macrophage phagocytosis: Mouse spleens were harvested and minced in cold HBSS followed by passing through nylon meshes. The spleen cells in suspensions were collected by centrifugation followed by washing. After lysis of RBC, splenocytes were plated in cell culture dishes in DMEM with 10% FBS and cultured for 2 h followed by removal of non-adherent cells. The adherent cells, ˜70% being macrophages as determined by anti-F4/80 staining, were tested for phagocytosis. For phagocytosis of RBC or other tissue cells, targeted cells were labeled with CFSE prior to addition into the macrophage-containing wells. Macrophages and target cells, at a ratio of 1:5-10 for RBC or 1:1-2 for other cells, were co-incubated for 30 min at 37° C. followed by gently washing. Macrophage phagocytosis of target cells was then analyzed by fluorescence microscopy and/or by FACS. […] Alternatively, the freshly isolated splenocytes in suspension were incubated with CFSE-labeled RBC and other phagocytic targets for 30 min at 37° C. Macrophage phagocytosis was then determined by FACS after labeling macrophages with anti-F4/80. To test phagocytosis of apoptotic cells, B16 cells were irradiated by UV for 150 seconds at 50 J/m^2 strength. Apoptosis was analyzed at 2, 4, 6, 8 and 18 h post UV irradiation by labeling of the cells with anti-phosphatidylserine (PS) antibody (data not shown) or FITC-conjugated annexin V (data not shown). Cells that were confirmed to be apoptotic were trypsinized, labeled with CFSE, and then co-incubated with macrophages for 30 min at 37° C. After gentle washing, phagocytosis was analyzed by fluorescence microscopy and/or FACS. To test phagocytosis of bacteria and the fungal product zymosan, AlexaFluor-conjugated E.coli strain […] (2 μl suspension, ˜2 μg) or zymosan bioparticles (1 μl suspension, ˜2 μg) (both from Invitrogen) were incubated with macrophages for 30 min followed by washing and analyses. Similar procedures were performed to test phagocytosis of macrophages from various sources. To obtain peritoneal macrophages, peritonea of mice were lavaged by sterile PBS followed by centrifugation to collect cells. Cells suspended in DMEM with 10% FBS were then plated in cell culture dishes and incubated for 2 h at 37° C. followed by removal of non-adherent cells. To produce bone marrow-derived macrophages, freshly isolated bone marrow cells were culture in macrophage colony-stimulating factor (MCSF, ˜10 ng/ml)-containing MEM with 10% FBS for five-six days and macrophage differentiation was confirmed by anti-F4/80 staining.

[2] = test system: splenic macrophages, PEMs and BMDMs; experiment: Ex vivo macrophage phagocytosis toward RBCs and other self-cells after activation
Method in brief: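 Mouse splenic or peritoneal macrophages (2 h adherent selection) or BMDMs (M-CSF ~10 ng/ml, 5-6 days) were co-incubated 30 min at 37 °C with CFSE-labelled RBCs (1:5-10) or other cells (1:1-2). Uptake was scored by fluorescence microscopy and/or FACS with anti-F4/80 or anti-CD11b macrophage labelling.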

SIRPα = SIRPα immunoprecipitation and WB detection of SIRPα ITIM phosphorylation and SHP-1 association; conditions: PMA treatment
Description: FIGS. 4A-4E include data related to our experiments on macrophage phagocytic plasticity. FIG. 4A is a panel of illustrative line graphs showing that IL-10 inhibits macrophage phagocytosis toward “self.” PEMs were treated with LPS and activating cytokines along with various concentrations of IL-10 before testing their ability to phagocytose RBCs. FIG. 4B illustrates the phagocytic plasticity of WT red pulp macrophages. […] Treatments of cultured macrophages with LPS and IL-17 re-elicited their phagocytosis toward RBCs. […] Error bars are ±SEM. ***P<0.001 vs. freshly isolated splenic macrophages. FIG. 4D includes microscopic images of RBC phagocytosis by LPS- and IL-17-treated splenic macrophages. […] WT PEMs treated with LPS or IL-17 were further treated with Cd47^+ RBCs or Cd47-AP (10 min, 37° C.) followed by cell lysis, SIRPα immunoprecipitation, and WB detection of SIRPα phosphorylation (SIRPα^pY) and SHP-1 association. Data presented in each panel represent at least three independent experiments with n≥4, if applicable.
FIGS. 5A-5H include data related to our experiments on the role of Syk in phagocytic activation. […] PEMs were treated with LPS and cytokines in the presence of various inhibitors. After washing, inhibitor-free macrophages were tested for phagocytosis toward RBCs. […] PEMs treated with LPS and activating cytokines, or together with IL-10, were tested for total Syk and phosphorylated Syk (Syk^pY, specific at Y519/520). FIG. 5D describes PMA-induced macrophages phagocytosis toward RBCs. WT and SIRPα^−/− PEMs were treated with PMA (37° C., 30 min) before testing phagocytosis toward RBCs. FIG. 5E is a schematic depiction of PKC-Syk-mediated macrophage phagocytic activation toward self. […] Left: Inhibition of Syk by piceatannol and R406 prevented PMA-induced phagocytic activation. […] Error bars are ±SEM. ***P<0.001 vs. the respective controls. […] LPS-treated WT PEMs were further briefly treated with pervanadate before testing for phagocytosis toward RBCs. Error bars are ±SEM. ***P<0.001 vs. the respective controls. […]

[3] = test system: cell surface LRP1 and CRT on PEMs; experiment: Macrophage cell surface CRT and LRP1 by FACS; conditions: after PMA treatment
Description: FIGS. 6A-6D include data related to our investigation of possible phagocytic receptors on macrophages for phagocytosing healthy self-cells. […] PEM (unstimulated) phagocytosis toward apoptotic B16 cells was tested in the presence of same antibodies and RAP as in A. Error bars are ±SEM. ***P<0.001 vs. phagocytosis in the presence of control IgG. […] PEMs, with or without (ctl.) treatment with LPS, IL-17, IL-6, or PMA, were labeled for cell surface LRP1 and CRT followed by FACS. Increased and decreased expressions were marked by arrows. […] Activated PEM phagocytosis toward RBCs was tested in the presence of antibodies against SR-A, Fc receptor Cd16/32 (10 μg/mL of each), inhibitors against SR-B (BLT1, 5 μM), dectin (laminarin, 100 μg/mL), complement (heparin, 40 U/mL), and antibody against Cd11b (10 μg/mL). Error bars are ±SEM. ***P<0.001 vs. the respective control without inhibition. Data presented in each panel represent at least three independent experiments with n≥4, if applicable.

PEMs [4] = experiment: Activated PEM phagocytosis toward RBCs in the presence of antibodies/inhibitors against phagocytic receptors; conditions: anti-CRT 10 μg/mL each; anti-LRP1 20 μg/mL; RAP 20 μg/mL
Description: (§2) FIGS. 6A-6D include data related to our investigation of possible phagocytic receptors on macrophages for phagocytosing healthy self-cells. […] PEMs, with or without (ctl.) treatment with LPS, IL-17, IL-6, or PMA, were labeled for cell surface LRP1 and CRT followed by FACS. […] Activated PEM phagocytosis toward RBCs was tested in the presence of antibodies against SR-A, Fc receptor Cd16/32 (10 μg/mL of each), inhibitors against SR-B (BLT1, 5 μM), dectin (laminarin, 100 μg/mL), complement (heparin, 40 U/mL), and antibody against Cd11b (10 μg/mL). […] Data presented in each panel represent at least three independent experiments with n≥4, if applicable.
as §1, with “To obtain peritoneal macrophages, peritonea of mice were lavaged by sterile PBS followed by centrifugation to collect cells. Cells suspended in DMEM with 10% FBS were then plated in cell culture dishes and incubated for 2 h at 37° C. followed by removal of non-adherent cells. To produce bone marrow-derived macrophages, freshly isolated bone marrow cells were culture in macrophage colony-stimulating factor (MCSF, ˜10 ng/ml)-containing MEM with 10% FBS for five-six days and macrophage differentiation was confirmed by anti-F4/80 staining.” left out

PEMs [5] = experiment: PEM (unstimulated) phagocytosis toward apoptotic B16 cells; conditions: same antibodies and RAP as for RBCs
Description: as §2
Ex vivo macrophage phagocytosis: Mouse spleens were harvested and minced in cold HBSS followed by passing through nylon meshes. […] The adherent cells, ˜70% being macrophages as determined by anti-F4/80 staining, were tested for phagocytosis. […] Macrophage phagocytosis of target cells was then analyzed by fluorescence microscopy and/or by FACS. […] Macrophage phagocytosis was then determined by FACS after labeling macrophages with anti-F4/80. […] Apoptosis was analyzed at 2, 4, 6, 8 and 18 h post UV irradiation by labeling of the cells with anti-phosphatidylserine (PS) antibody (data not shown) or FITC-conjugated annexin V (data not shown). […] After gentle washing, phagocytosis was analyzed by fluorescence microscopy and/or FACS. […]

Row | Molecule | rescue of Syk inhibition-repressed PEM phagocytic activation by LPS (PEMs [1]) | time to elicitation of phagocytosis [2] [min] | phagocytic target discrimination ([2]; PMA-treated WT PEMs) | PEM phagocytosis toward RBCs ([2]; low nanomolar concentrations, 37° C., 30 min) | SIRPα expression, SIRPα ITIM phosphorylation and SHP-1 association (SIRPα) | reduction of CRT and LRP1 expression on PEMs [3] [%] | LPS/cytokine-induced PEM phagocytosis toward RBCs (PEMs [4]) | phagocytosis toward apoptotic cells (PEMs [5])
1 | CCCCCCCCCCCCCC(=O)O[C@@H]1[C@@H](C)[C@@]2(O)[C@@H](C=C(CO)C[C@]3(O)C(=O)C(C)=C[C@@H]23)[C@@H]2C(C)(C)[C@]12OC(C)=O [PMA, phorbol 12-myristate 13-acetate] | failed to rescue | < 30 | aggressively phagocytosed both CD47^− and CD47^+ RBCs | instantly initiated PEM to phagocytose RBCs | neither reduced SIRPα expression nor affected SIRPα ITIM phosphorylation and SHP-1 association | ~50 | – | –
2 | RAP: LRP1 receptor-associated protein, which inhibits CRT-LRP1 binding | – | – | – | – | – | – | failed to inhibit | significantly inhibited
